The numbers were not newly measured in patent publication US20100317636A1, “REDUCING THE RISK OF CHRONIC LUNG DISEASE IN INFANTS” (China Medical University, a Taiwan corporation, priority 2006, published 2010), which cites them from elsewhere.

For data set [1] the following is noted: Ryrfeldt et al. (1982).

As for `CCCC1O[C@@H]2C[C@H]3[C@@H]4CCC5=CC(=O)C=C[C@]5(C)[C@H]4[C@@H](O)C[C@]3(C)[C@]2(C(=O)CO)O1` (stereo partly drawn) [Budesonide, 16 alpha, 17 alpha-(22R,S)-propylmethylenedioxypregna-1,4-diene-11 beta, 21-diol-3,20-dione], the “degradation in the liver” value in data set [1] is given as “rapidly degraded”. For the same molecule, the solubility in chloroform result (chloroform) is reported as “freely soluble”. Where the note is “ethanol”, the solubility in ethanol entry is “sparingly soluble”. In addition, under “heptane”, the solubility in heptane result is listed as “practically insoluble”. The solubility in water result (water) is “practically insoluble”.
